Article PMC7822874, “Chemoprotective antimalarials identified through quantitative high-throughput screening of Plasmodium blood and liver stage parasites” (Scientific Reports, 2021)
Read-outs that look alike come from different tables or passages of the source.

How the values were obtained:
[1] = test system: P. berghei-ANKA-GFP-LucCON liver stage parasites in HepG2-A16-CD81EGFP cells; assay: P. berghei liver stage Pb-Luc assay, Method 1 (UCSD, 1536-well); format: cell-based, Plasmodium berghei; details: P. berghei liver stage, averaged response (percent); for Average P. berghei 1 µM response (%): the header list (r8) defines it as the 1 µM dose
[2] = test system: P. falciparum Dd2 (clone B2) asexual blood stage parasites; assay: P. falciparum Dd2 asexual blood stage SYBR Green-I 72 h proliferation assay (qHTS); format: cell-based, Plasmodium falciparum; details: averaged P. falciparum asexual blood stage potency, log10 of AC50 in M
HepG2-A16-CD81EGFP cells = details: averaged response (percent)
[3] = HepG2, the header list (r10) describes it as the 1 µM dose

Structure (SMILES)	Average P. berghei 3 µM response( %) [1] [%]	Average P. berghei 1 µM response (%) [1] [%]	Pf ABS Log AC50 (M) [2] [M]	Average HepG2 3 µM response( %) (HepG2-A16-CD81EGFP cells; HepG2, 3 µM dose) [%]	Average HepG2 3 µM response( %) (HepG2-A16-CD81EGFP cells; [3]) [%]
CCOC(=O)c1c[nH]c2c(C)cc(C)cc2c1=O [MLS000530578]	9.48	49	-5.437	102	102
COc1ccc(C2=C(Nc3ccc(C)cc3)c3ccccc3C2=O)cc1 [MLS000563980]	25	81	-5.637	89	94
Br.CCOC(=O)c1c(CSC(=N)N)n(-c2ccc(Br)cc2)c2cc(Br)c(OC(C)=O)cc12 [MLS000595146]	73	88	-5.712	102	101
O=C(/C=C/c1ccco1)NC(=S)Nc1ccccc1N1CCCC1 [MLS000663784]	104	113	-5.575	105	105
c1cc(Nc2ncnc3sc4c(c23)CCC4)ccn1 [MLS000681348]	95	92	-5.462	103	103
Cc1cc(Cl)c(S(=O)(=O)N2CCN(c3ccccn3)CC2)cc1OCC(=O)NC1CCCCC1 [MLS000693481]	74	99	-6.387	100	93
CCOC(=O)Cn1c2c(c(=N)c3c1CCC3)CCCC2 [MLS000702567]	104	95	-4.912	104	104
Cc1nn(-c2nnc(NCc3ccccc3)nn2)c(C)c1Br [MLS000704225]	57	106	-6.187	93	102
CCOc1ccc(Nc2nc(NCC3CCCO3)c3ccccc3n2)cc1 (stereo not shown) [MLS000724397]	10	59	-5.737	84	102
OC(CNCCNc1ncccc1C(F)(F)F)Cn1ccc2ccccc21 (stereo not shown) [MLS000833573]	109	113	-5.662	95	101
CCOC(=O)N1CCc2c(sc3nc4n(c(=O)c23)N=C(c2ccc(OC)cc2)CS4)C1 [MLS000859689]	87	113	-5.012	98	100
Oc1ccc(C2NCc3ccccc3-n3cccc32)cc1Cl (stereo not shown) [MLS000878874]	82	96	-5.925	105	105
COc1cc(O)c(C(CCN2CCCC(C)C2)c2cc(OC)c(OC)c(OC)c2)c(OC)c1 (stereo not shown) [MLS000879467]	71	–	-5.687	86	89
COc1ccc(C(CCN2CCCCC2)c2c(O)cc(OC)cc2OC)cc1 (stereo not shown) [MLS000879486]	88	105	-5.962	88	92
CN(CC(=O)Nc1cccc(F)c1)C(=O)c1ccc(-c2cccc(C(F)(F)F)c2)o1 [MLS001139679]	89	141	-6.362	100	103
c1ccc(CNc2nc(-c3ccccn3)nc3ccccc23)cc1 [MLS001165148]	8	72	-5.662	87	96
CCOC(=O)C1=C(C)N=c2s/c(=C/c3ccc(OCC(=O)O)cc3)c(=O)n2C1c1cc(OC)c(OC)c(OC)c1 (stereo not shown) [MLS001178475]	74	98	-5.737	99	99

Structure (SMILES)	Average P. berghei 3 µM response( %) [1] [%]	Average P. berghei 1 µM response (%) [1] [%]	Pf ABS Log AC50 (M) [2] [M]	Average HepG2 3 µM response( %) (HepG2-A16-CD81EGFP cells; HepG2, 3 µM dose) [%]	Average HepG2 3 µM response( %) (HepG2-A16-CD81EGFP cells; [3]) [%]
Cc1ccc2[nH]c(C(=O)Nc3ccc(F)cc3)cc2c1 [MLS001183414]	91	92	-4.837	100	100
N=c1n(N)c2ccccc2n1CC(=O)c1ccc(Br)cc1 [MLS001183984]	137	110	-5.837	102	102
c1ccc2c(NCCc3c[nH]c4ccccc34)c3ccccc3nc2c1 [MLS001195935]	47	–	-5.937	82	91
CN(C)c1cc[n+](CC(=O)c2cccs2)cc1 [MLS001207444]	62	89	-5.387	101	101
CN1CCC(NCCC(c2ccc(F)cc2)c2ccc(Cl)cc2)CC1 (stereo not shown) [MLS001215866]	70	103	-5.437	100	100
C=C(C)COc1ccc(-c2ncnc(C(F)(F)F)c2-c2ccc(OC)cc2)c(O)c1 [MLS001216205]	105	107	-5.462	103	92
O=C1c2cc(F)ccc2-n2c1nc1ccccc1c2=O [MLS001216278]	13	25	-5.937	94	94
Cc1ccc(/C=N/NC(=O)c2cc3ccccc3cc2O)o1 [MLS001219838]	6.47	18	-5.275	98	98
O=C(c1ccc([N+](=O)[O-])o1)N1CCN(c2nc3c(F)cc(F)cc3s2)CC1 [MLS001234228]	65	77	-5.462	107	103
COC(=O)[C@H]1[C@H]2C[C@@H]3c4[nH]c5cc(OC)ccc5c4CCN3C[C@H]2C[C@@H](OC(=O)/C=C/c2cc(OC)c(OC)c(OC)c2)[C@@H]1OC [MLS002153878]	84	102	-5.162	105	105
O=S1(=O)N(CCN2CC=C(c3c[nH]c4cc(F)ccc34)CC2)c2cccc3c2N1CCC3 [MLS002172448]	60	78	-6.050	80	88
CCN1CCN(Cc2ccc(NC(=O)c3cc(NC(=O)C(=O)c4c[nH]c5ccccc45)cc(OC)c3)cc2C(F)(F)F)CC1.O=C(O)C(F)(F)F [MLS003105970]	54	132	-6.175	106	106
COc1ccc(CCN2CCC(Nc3nc4ccccc4n3Cc3ccc(F)cc3)CC2)cc1 [NCGC00016913]	43	54	-5.658	100	99
COc1ccc(-c2c3c(nc4sc(C(=O)Nc5ccc(Cl)cc5)c(N)c24)CC(C)(C)CC3=O)cc1 [NCGC00100738]	90	111	-6.425	109	104
Cc1cc(Oc2c(C(F)(F)F)oc3c(CN4CCC(C)CC4)c(O)ccc3c2=O)cc(C)c1Cl [NCGC00101140]	71	85	-6.125	111	110
CCN(CC)CCn1c(=N)n(CC(O)COc2ccccc2C)c2ccccc21 (stereo not shown) [NCGC00101835]	72	117	-5.475	100	104
